Measurements reported in US6303596A, “Use of taurolidine for treatment of leukemias” (priority 2000, dated 2001).

How the values were obtained:
[1] = system: K562 cells; test: trypan blue exclusion, K562; format: cell-based, human; settings: K562, 25 μg/ml taurolidine
Protocol: FIGS. 6A and 6B depict cell viability and growth rates for K562 cell line following taurolidine treatment, in terms of % trypan blue negative cells and % cell number, respectively. Cells were treated with various concentrations of taurolidine for 4 hours in AIM-V+0.01% BCS. After aliquots were collected for LDH assay, the remainder of the culture was rinsed in HBSS and resuspended in RPMI+10% BCS without taurolidine. Counts of trypan blue-negative cells (FIG. 6A), and total cell number (FIG. 6B), were recorded daily thereafter (with the measurement at Day 1 being made immediately after the 4 hour taurolidine treatment). […] Doubling times were determined under each condition, and expressed as a percentage of the rate of doubling of untreated cells. […]
In these experiments, integrity of cell membranes following taurolidine treatment was assessed by exclusion of trypan blue and by measuring the release of LDH in MM6, K-562, HL-60, and REH cells. […] A parallel aliquot of cells was lysed by three cycles of freeze/thaw and the quantity of LDH released was taken to be 100%. […]
HL-60 cells treated with 50 μl taurolidine. In these samples, LDH present in the culture medium was 8.3±2.3% of that released by completely lysed cells, compared with 2.3±0.8% measured in control cultures. […]

[2] = system: leukemia-derived cell lines; test: trypan blue exclusion, cell lines taken together; format: cell-based, human
Protocol: In these experiments, integrity of cell membranes following taurolidine treatment was assessed by exclusion of trypan blue and by measuring the release of LDH in MM6, K-562, HL-60, and REH cells. Since BCS contains significant amounts of LDH, these experiments were conducted on cells cultured in AIM-V+0.01% BCS. Four hour treatment of cells was conducted in AIM-V containing 0.01% BCS in order to allow subsequent LDH assay without interference from BCS (which occurs in when normal culture medium, containing 10% BCS, is used). Thus, MM6 cells (5×10^5 cells/ml) were treated with taurolidine for four hours in AIM-V+0.01% BCS, after which an aliquot of the cell suspension was removed for measurement of LDH release. A parallel aliquot of cells was lysed by three cycles of freeze/thaw and the quantity of LDH released was taken to be 100%. Remaining cells were rinsed in HBSS and resuspended in growth medium for measurement of growth rates.
HL-60 cells treated with 50 μl taurolidine. In these samples, LDH present in the culture medium was 8.3±2.3% of that released by completely lysed cells, compared with 2.3±0.8% measured in control cultures. […] After 4 hour treatment, cells were rinsed and returned to growth medium and monitored for viability and growth over the following 3 days. […]

[3] = system: Lymphocytes; test: TUNEL flow cytometry, lymphocytes in PBMC, culture medium; format: cell-based, human; settings: 6 h
Protocol: FIG. 14A and FIG. 14B are terminal deoxytransferase-mediated deoxyuridine-triphosphate-biotin nick end labeling assay (TUNEL) analyses of control cells and taurolidine-treated PBMC, respectively. Cells were incubated with 100 μg/ml taurolidine for six hours and processed for TUNEL analysis as given below. Parallel samples were stained with FITC-conjugated anti-CD14 and propidium iodide (PI) as described below. Ten thousand events were recorded per sample. TUNEL signal (x-axis) is a measure of DNA fragmentation, which FSC (y-axis) is related to cell size. TUNEL-negative lymphocytes are bounded by the rectangle R1, while TUNEL-negative monocytes (CD14 positive cells) are bounded by the rectangle R2. The vertical line indicates demarcation between TUNEL-negative and TUNEL-positive cells. There were minimal numbers of PI-positive cells in the six hour samples (see Table IV).
In the second method, DNA fragmentation was detected via TUNEL assay according to the manufacturer's instructions. With this methodology, 2×10^6 cells were fixed with 2% paraformaldehyde, permeabilized with 0.1% Triton X-100/0.1% citrate, incubated at 37° C. with terminal deoxynucleotidyl transferase and FITC-dUTP, rinsed and analyzed by flow cytometry. Enhanced FITC signal indicates apoptosis-specific DNA fragmentation. Gavriali, et al, "Identification of programmed cell death in situ via specific labeling of nuclear DNA fragmentation," J Cell Biol 119:493 (1992). Parallel aliquots of unfixed cells were treated with PI and FITC-conjugated anti-CD14 and analyzed by flow cytometry, in order to identify cells with permeable cell membranes (since PI binds to DNA but is excluded from cells with intact plasma membranes) and also to determine the cell-specificity of the apoptotic signal.
A Becton-Dickinson FACSCalibur instrument was used for flow cytometric analysis of cells. Assessment of cell diameter (forward scatter; FCS) and granularity (side scatter; SSC).was carried out on unfixed cells. Discrimination between lymphocytes and monocytes was made possible by their characteristic differences in FSC and SSC, and confirmed by staining monocytes with FITC-labeled anti-CD14 antibodies and lymphocytes with a combination of FITC-conjugated anti-CD3 and PE-conjugated anti-CD19. After incubation with taurolidine (with or without concomitant LPS treatment), cells were rinsed twice in phosphate-buffered saline containing 0.1% bovine serum albumin (PBSA) and 1×10^6 cells were resuspended in 0.1 ml PBSA. After 5 μl FITC-conjugated anti-CD14 was added, cells were incubated in the dark on ice for 15 minutes and then centrifuged at 250×g. Cells were resuspended in 500 μl PBSA containing 5 μg/ml PI and subjected to flow cytometry.
Consequently, TUNEL analysis was performed on PBMC at 3, 6, or 24 hours after treatment with 25 to 100 μg/ml taurolidine. Aliquots of harvested cells were also labeled with FITC-conjugated anti-CD14 antibodies and PI, which allowed identification of monocytes (CD14-positive cells) and cells with damaged cell membranes (PI-positive cells). […] Thus, nearly 75% of the monocytes were TUNEL-positive following treatment with 100 μg/ml taurolidine for six hours. Confirmation that the TUNEL-positive cells were monocytes was obtained by staining with FITC-conjugated anti-CD14.
^a Analysis by flow cytometry after staining cells with FITC-conjugated
anti-CD14 and PI, and processing for TUNEL. Data are mean ± SD of two
^b Percent of cells present in the TUNEL-negative region in control

[4] = system: epithelial cells; settings: 5 mg/ml taurolidine, two hours; cited from earlier work

**Q.** Which “trypan blue staining after treatment” value [1] does the source give for `O=S1(=O)CCN(CN2CCS(=O)(=O)NC2)CN1` [taurolidine, 4,4'-methylenebis(perhydro-1,2,4-thiadiazin 1,1-dioxide)] here?
**A.** did not show an increase in trypan blue staining

**Q.** And the “trypan blue assay on Day 1” value ([2]; all samples, 25 to 100 μg/ml taurolidine, after 4 h treatment)?
**A.** equivalent to control

**Q.** And the “progressive permeability to trypan blue over following days” value ([2]; leukemia-derived cell lines except K562, taurolidine 50 μg/ml or greater)?
**A.** permeability to trypan blue

**Q.** What about the viability at 25 µg/mL ([3]; Homo sapiens, Lymphocyte, lymphocytes, 25 μg/ml, percent of control, read-out: % TUNEL-Negative) of the same molecule?
**A.** 100 ± 7%

**Q.** What about the viability at 50 µg/mL ([3]; Homo sapiens, Lymphocyte, lymphocytes, 50 μg/ml, percent of control, read-out: % TUNEL-Negative) of the same molecule?
**A.** 99.8 ± 3.4%

**Q.** And the viability at 100 µg/mL ([3]; Homo sapiens, Lymphocyte, lymphocytes, 100 μg/ml, percent of control, read-out: % TUNEL-Negative)?
**A.** 102 ± 3.1%

**Q.** And the “cells remaining TUNEL-negative” value ([3]; lymphocytes, up to 100 μg/ml taurolidine)?
**A.** ~100%

**Q.** And the apoptosis in lymphocytes ([3]; up to 100 μg/ml taurolidine, culture medium)?
**A.** did not induce detectable apoptosis

**Q.** What about the “toxic effects on epithelial cells” value [4] of the same molecule?
**A.** No toxic effects
